Laboratory results as given in the NIST ThermoML archive (doi:10.1021/je060271a).

Conditions: 303.15 K, Liquid, Vibrating tube method

CCCCC(=O)OCC(COC(=O)CCCC)(COC(=O)CCCC)COC(=O)CCCC [pentaerythritol tetrapentanoate]
Conditions	mass density [kg/m3]
24416 kPa	1025.8
24455 kPa	1025.9
24486 kPa	1025.8
24518 kPa	1026
24556 kPa	1025.8
24588 kPa	1025.8
24618 kPa	1026.1
24648 kPa	1025.9
24685 kPa	1026.1
24717 kPa	1026
24757 kPa	1026
24790 kPa	1025.9
24823 kPa	1026.1
24863 kPa	1026.1
24893 kPa	1026.2
24922 kPa	1026
24956 kPa	1026.1
24986 kPa	1026.1
25015 kPa	1026.2
25045 kPa	1026.1
25080 kPa	1026.2
25109 kPa	1026.2
25144 kPa	1026.2
25174 kPa	1026.2
25203 kPa	1026.3
25233 kPa	1026.4
25269 kPa	1026.3
25298 kPa	1026.2
25328 kPa	1026.3
25364 kPa	1026.3
25394 kPa	1026.4
25430 kPa	1026.2
25460 kPa	1026.4
25490 kPa	1026.3
25527 kPa	1026.3
25558 kPa	1026.5
25588 kPa	1026.4
25624 kPa	1026.5
25654 kPa	1026.6
25686 kPa	1026.6
25753 kPa	1026.5
25785 kPa	1026.6
25816 kPa	1026.6
25854 kPa	1026.6
25885 kPa	1026.7
25916 kPa	1026.7
25954 kPa	1026.8
25985 kPa	1026.7
26023 kPa	1026.6
26054 kPa	1026.7
26086 kPa	1026.8
26119 kPa	1026.7
26157 kPa	1026.8
26190 kPa	1026.8
26222 kPa	1027
26261 kPa	1026.9
26294 kPa	1026.9
26326 kPa	1027
26365 kPa	1027
26398 kPa	1026.9
26431 kPa	1027
26469 kPa	1027
26503 kPa	1027
26536 kPa	1027
26575 kPa	1027.2
26609 kPa	1027
26642 kPa	1027
26686 kPa	1027.2
26712 kPa	1027.1
26753 kPa	1027.2
26787 kPa	1027.1
26822 kPa	1027.2
26863 kPa	1027.3
26897 kPa	1027.2
26931 kPa	1027.2
26966 kPa	1027.3
27007 kPa	1027.3
27042 kPa	1027.2
27077 kPa	1027.3
27119 kPa	1027.3
27156 kPa	1027.3
27191 kPa	1027.3
27233 kPa	1027.5
27268 kPa	1027.3
27303 kPa	1027.5
27338 kPa	1027.4
27381 kPa	1027.4
27416 kPa	1027.6
27452 kPa	1027.5
27495 kPa	1027.6
27531 kPa	1027.5
27574 kPa	1027.6
27611 kPa	1027.7
27647 kPa	1027.7
27683 kPa	1027.6
27727 kPa	1027.6
27763 kPa	1027.7
27800 kPa	1027.6
27844 kPa	1027.8
27881 kPa	1027.8
27919 kPa	1027.7
27964 kPa	1027.8
28003 kPa	1027.8
28041 kPa	1027.8
28089 kPa	1027.9
28128 kPa	1027.9
28160 kPa	1027.9
28193 kPa	1027.8
28221 kPa	1027.9
28249 kPa	1028
28282 kPa	1028
28310 kPa	1028
28338 kPa	1028
28366 kPa	1028
28399 kPa	1028
28427 kPa	1027.9
28461 kPa	1028.1
28489 kPa	1028
28518 kPa	1028.1
28546 kPa	1028.1
28580 kPa	1028
28609 kPa	1028.1
28638 kPa	1028.2
28672 kPa	1028.1
28700 kPa	1028.2
28729 kPa	1028.2
28764 kPa	1028.3
28792 kPa	1028.2
28821 kPa	1028.3
28856 kPa	1028.3
28885 kPa	1028.5
28915 kPa	1028.3
28950 kPa	1028.4
28978 kPa	1028.3
29008 kPa	1028.4
29043 kPa	1028.4
29072 kPa	1028.4
29102 kPa	1028.5
29132 kPa	1028.5
29168 kPa	1028.4
29198 kPa	1028.4
29228 kPa	1028.5
29264 kPa	1028.6
29294 kPa	1028.6
29325 kPa	1028.5
29356 kPa	1028.5
29392 kPa	1028.5
29422 kPa	1028.6
29453 kPa	1028.6
29483 kPa	1028.6
29520 kPa	1028.7
29550 kPa	1028.7
29587 kPa	1028.7
29617 kPa	1028.6
29648 kPa	1028.8
29684 kPa	1028.7
29716 kPa	1028.7
29749 kPa	1028.8
29779 kPa	1028.8
29810 kPa	1028.8
